These results are taken from patent publication US20090005363A1, “Organic Compounds” (priority 2005, published 2009).

The target in this assay is mGluR5 (Homo sapiens, UniProt P41594). The assay is described as follows: inhibition of the glutamate induced elevation of intracellular Ca2+ concentration. The settings on record: for inhibition at 10 µM: read-out: mGluR5 Activity inh. at 10 μM [%].
mGluR5, sequence (P41594 21-1180 isoform P41594-2 limits assumed): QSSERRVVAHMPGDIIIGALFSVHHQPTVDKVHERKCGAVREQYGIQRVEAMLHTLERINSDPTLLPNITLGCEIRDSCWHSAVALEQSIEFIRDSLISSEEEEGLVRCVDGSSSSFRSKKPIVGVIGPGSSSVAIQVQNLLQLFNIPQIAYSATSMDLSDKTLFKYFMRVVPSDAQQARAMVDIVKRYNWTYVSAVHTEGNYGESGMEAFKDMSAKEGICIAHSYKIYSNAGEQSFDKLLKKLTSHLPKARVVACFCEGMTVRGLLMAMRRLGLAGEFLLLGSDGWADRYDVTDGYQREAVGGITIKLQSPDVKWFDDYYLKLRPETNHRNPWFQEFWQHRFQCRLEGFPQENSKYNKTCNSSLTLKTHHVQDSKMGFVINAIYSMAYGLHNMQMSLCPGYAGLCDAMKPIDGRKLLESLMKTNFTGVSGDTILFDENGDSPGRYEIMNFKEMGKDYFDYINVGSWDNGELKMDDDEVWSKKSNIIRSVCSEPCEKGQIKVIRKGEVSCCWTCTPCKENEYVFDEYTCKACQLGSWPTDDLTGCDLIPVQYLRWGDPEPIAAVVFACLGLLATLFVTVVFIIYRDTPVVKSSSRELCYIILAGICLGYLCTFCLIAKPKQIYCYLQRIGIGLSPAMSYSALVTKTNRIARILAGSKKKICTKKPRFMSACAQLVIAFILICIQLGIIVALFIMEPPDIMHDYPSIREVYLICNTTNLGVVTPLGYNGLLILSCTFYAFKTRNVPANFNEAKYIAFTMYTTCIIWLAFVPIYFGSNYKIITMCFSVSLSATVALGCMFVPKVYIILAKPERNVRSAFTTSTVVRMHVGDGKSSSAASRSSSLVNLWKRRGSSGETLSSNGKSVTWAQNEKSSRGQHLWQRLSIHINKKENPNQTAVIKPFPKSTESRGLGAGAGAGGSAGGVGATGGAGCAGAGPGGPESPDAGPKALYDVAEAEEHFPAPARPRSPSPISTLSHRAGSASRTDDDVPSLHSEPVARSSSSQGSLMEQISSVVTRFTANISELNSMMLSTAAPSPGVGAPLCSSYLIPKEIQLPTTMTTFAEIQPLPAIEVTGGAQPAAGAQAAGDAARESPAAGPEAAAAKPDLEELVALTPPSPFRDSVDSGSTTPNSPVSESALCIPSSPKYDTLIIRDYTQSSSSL

Source text: This can be determined in vitro for example at recombinant human metabotropic glutamate receptors, especially PLC-coupled subtypes thereof such as mGluR5, using different procedures like, for example, measurement of the inhibition of the agonist induced elevation of intracellular Ca^2+ concentration in accordance with L. P. Daggett et al., Neuropharm.

On to `CCCCC1CCCCN1C(=O)c1cnc(Nc2ccc(C)nc2)c(Cl)c1` (centres unmarked) [Compound 4.38, (2-Butyl-piperidin-1-yl)-[5-chloro-6(6-methyl-pyridin-3-ylamino)-pyridin-3-yl]-methanone], for which the inhibition at 10 µM is 98%. Still for that read-out and setting: in the case of `CCC(CC)C1CCCCN1C(=O)c1cnc(Nc2ccc(C)nc2)c(Cl)c1` (centres unmarked) [Compound 4.39, [5-Chloro-6-(6-methyl-pyridin-3-ylamino)-pyridin-3-yl]-[2-(1-ethyl-propyl)-piperidin-1-yl]-methanone] it was 96%; in that of `CCC1C(C)CCCN1C(=O)c1cnc(Nc2ccc(C)nc2)c(Cl)c1` (centres unmarked) [Compound 4.40, [5-Chloro-6-(6-methyl-pyridin-3-ylamino)-pyridin-3-yl]-(2-ethyl-3-methyl-piperidin-1-yl)-methanone], 98%. Still for that read-out and setting: with `Cc1ccc(Nc2ncc(C(=O)N3CCCCC3c3ccccc3)cc2Cl)cn1` (centres unmarked) [Compound 4.41, [5-Chloro-6-(6-methyl-pyridin-3-ylamino)-pyridin-3-yl]-(2-phenyl-piperidin-1-yl)-methanone] the figure was 96%; with `Cc1ccc(Nc2ncc(C(=O)N3CCCCC3c3ccccn3)cc2Cl)cn1` (centres unmarked) [Compound 4.42, [5-Chloro-6-(6-methyl-pyridin-3-ylamino)-pyridin-3-yl]-(3,4,5,6-tetrahydro-2H-[2,2′]bipyridinyl-1-yl)-methanone], 98%. Still for that read-out and setting: in the case of `Cc1ccc(Nc2ncc(C(=O)N3CCCCC3c3cccnc3)cc2Cl)cn1` (centres unmarked) [Compound 4.43, [5-Chloro-6-(6-methyl-pyridin-3-ylamino)-pyridin-3-yl]-(3,4,5,6-tetrahydro-2H-[2,3′]bipyridinyl-1-yl)-methanone] it was 100%; in that of `Cc1ccc(Nc2ncc(C(=O)N3CCCCC3C3CCCO3)cc2Cl)cn1` (centres unmarked) [Compound 4.44, [5-Chloro-6-(6-methyl-pyridin-3-ylamino)-pyridin-3-yl]-[2-(tetrahydro-furan-2-yl)-piperidin-1-yl]-methanone], 99%; in that of `Cc1ccc(Nc2ncc(C(=O)N3CCCCC3c3ccc(C)o3)cc2Cl)cn1` (centres unmarked) [Compound 4.45, [5-Chloro-6-(6-methyl-pyridin-3-ylamino)-pyridin-3-yl]-[2-(5-methyl-furan-2-yl)-piperidin-1-yl]-methanone], 90%. As to `Cc1ccc(Nc2ncc(C(=O)N3CCCCC3c3ncco3)cc2Cl)cn1` (centres unmarked) [Compound 4.46, [5-Chloro-6-(6-methyl-pyridin-3-ylamino)-pyridin-3-yl]-(2-oxazol-2-yl-piperidin-1-yl)-methanone], the inhibition at 10 µM was 94%. On the same count and under the same terms, in the case of `Cc1ccc(Nc2ncc(C(=O)N3CCCCC3CCCl)cc2Cl)cn1` (centres unmarked) [Compound 4.47, [2-(2-Chloro-ethyl)-piperidin-1-yl]-[5-chloro-6-(6-methyl-pyridin-3-ylamino)-pyridin-3-yl]-methanone] it was 97%; in that of `Cc1ccc(Nc2ncc(C(=O)N3C(C)CCCC3C)cc2Cl)cn1` (centres unmarked) [Compound 4.48, [5-Chloro-6-(6-methyl-pyridin-3-ylamino)-pyridin-3-yl]-(2,6-dimethyl-piperidin-1-yl)-methanone], 99%. The same measure, in the same setting: in the case of `Cc1ccc(Nc2ncc(C(=O)N3C(C)(C)CCCC3(C)C)cc2Cl)cn1` [Compound 4.49, [5-Chloro-6-(6-methyl-pyridin-3-ylamino)-pyridin-3-yl]-(2,2,6,6-tetramethyl-piperidin-1-yl)-methanone] it was 66%; in that of `CCCC1CCCC(C)N1C(=O)c1cnc(Nc2ccc(C)nc2)c(Cl)c1` (centres unmarked) [Compound 4.50, [5-Chloro-6-(6-methyl-pyridin-3-ylamino)-pyridin-3-yl]-(2-methyl-6-propyl-piperidin-1-yl)-methanone], 98%; in that of `CCC[C@@H]1CCC[C@@H](CC)N1C(=O)c1cnc(Nc2ccc(C)nc2)c(Cl)c1` [Compound 4.51, [5-Chloro-6-(6-methyl-pyridin-3-ylamino)-pyridin-3-yl]-((2R,6R)-2-ethyl-6-propyl-piperidin-1-yl)-methanone], 96%. In the case of `CCCC1CCC(C)CN1C(=O)c1cnc(Nc2ccc(C)nc2)c(Cl)c1` (centres unmarked) [Compound 4.52, [5-Chloro-6-(6-methyl-pyridin-3-ylamino)-pyridin-3-yl]-(5-methyl-2-propyl-piperidin-1-yl)-methanone], the inhibition at 10 µM is 96%. As to `CC[C@@H]1CCCCN1C(=O)c1cnc(Nc2ccc(Cl)cc2)c(Cl)c1` [Compound 4.54, [5-Chloro-6-(4-chloro-phenylamino)-pyridin-3-yl]-((R)-2-ethyl-piperidin-1-yl)-methanone], the inhibition at 10 µM was determined as 97%. On the same count and under the same terms, with `C=CC1CCCCN1C(=O)c1cnc(Nc2ccc(C)nc2)c(Cl)c1` (centres unmarked) [Compound 4.55, [5-Chloro-6-(6-methyl-pyridin-3-ylamino)-pyridin-3-yl]-(2-vinyl-piperidin-1-yl)-methanone] the figure was 96%.

For `C/C=C\C1CCCCN1C(=O)c1cnc(Nc2ccc(C)nc2)c(Cl)c1` (centres unmarked) [Compound 4.56, [5-Chloro-6-(6-methyl-pyridin-3-ylamino)-pyridin-3-yl]-[((Z)-2-propenyl)-piperidin-1-yl]-methanone], the “mGluR5 Activity inh. at 10 μM [%]” value (inhibition of glutamate induced elevation of intracellular Ca2+ concentration at 10 μM) was found to be 97%.

Turning to `CCC=C1CCCN(C(=O)c2cnc(Nc3ccc(C)nc3)c(Cl)c2)C1` [Compound 4.58, [5-Chloro-6-(6-methyl-pyridin-3-ylamino)-pyridin-3-yl]-[3-propylidene-piperidin-1-yl]-methanone], the inhibition at 10 µM is 93%.

Take `CCOCC1CCCCN1C(=O)c1cnc(Nc2ccc(C)nc2)c(Cl)c1` (centres unmarked) [Compound 4.60, [5-Chloro-6-(6-methyl-pyridin-3-ylamino)-pyridin-3-yl]-(2-ethoxymethyl-piperidin-1-yl)-methanone]: the inhibition at 10 µM amounted to 97%. On the same count and under the same terms, in the case of `Cc1ccc(Nc2ncc(C(=O)N3CCCCC3CCO)cc2Cl)cn1` (centres unmarked) [Compound 4.61, [5-Chloro-6(6-methyl-pyridin-3-ylamino)-pyridin-3-yl]-[2-(2-hydroxy-ethyl)-piperidin-1-yl]-methanone] it was 79%; in that of `CCCC1CCC(F)CN1C(=O)c1cnc(Nc2ccc(C)nc2)c(Cl)c1` (centres unmarked) [Compound 4.62, [5-Chloro-6-(6-methyl-pyridin-3-ylamino)-pyridin-3-yl]-(5-fluoro-2-propyl-piperidin-1-yl)-methanone], 99%; in that of `Cc1ccc(Nc2ncc(C(=O)N3CCCCC3C(F)C(C)F)cc2Cl)cn1` (centres unmarked) [Compound 4.63, [5-Chloro-6-(6-methyl-pyridin-3-ylamino)-pyridin-3-yl]-[2-(1,2-difluoro-propyl)-piperidin-1-yl]-methanone], 100%. Still for that read-out and setting: in the case of `Cc1ccc(Nc2ncc(C(=O)N3CCCCC3CC(C)F)cc2Cl)cn1` (centres unmarked) [Compound 4.64, [5-Chloro-6-(6-methyl-pyridin-3-ylamino)-pyridin-3-yl]-[2-(2-fluoro-propyl)-piperidin-1-yl]-methanone] it was 99%; in that of `CCC1OCCCCN1C(=O)c1cnc(Nc2ccc(C)nc2)c(Cl)c1` (centres unmarked) [Compound 4.65, [5-Chloro-6-(6-methyl-pyridin-3-ylamino)-pyridin-3-yl]-(2-ethyl-[1,3]oxazepan-3-yl)-methanone], 83%. For `CCCC1OCCCCN1C(=O)c1cnc(Nc2ccc(C)nc2)c(Cl)c1` (centres unmarked) [Compound 4.66, [5-Chloro-6-(6-methyl-pyridin-3-ylamino)-pyridin-3-yl]-(2-propyl-[1,3]oxazepan-3-yl)-methanone], the inhibition at 10 µM stood at 91%.

With `CCC(CC)C1OCCCCN1C(=O)c1cnc(Nc2ccc(C)nc2)c(Cl)c1` (centres unmarked) [Compound 4.67, [5-Chloro-6-(6-methyl-pyridin-3-ylamino)-pyridin-3-yl]-[2-(1-ethyl-propyl)-[1,3]oxazepan-3-yl]-methanone], the inhibition at 10 µM was found to be 95%. Regarding `CCCC1OCCCN1C(=O)c1cnc(Nc2ccc(C)nc2)c(Cl)c1` (centres unmarked) [Compound 4.68, [5-Chloro-6-(6-methyl-pyridin-3-ylamino)-pyridin-3-yl]-(2-propyl-[1,3]oxazinan-3-yl)-methanone], the inhibition at 10 µM was 99%. The same measure, in the same setting: in the case of `CCC(CC)C1OCCCN1C(=O)c1cnc(Nc2ccc(C)nc2)c(Cl)c1` (centres unmarked) [Compound 4.69, [5-Chloro-6-(6-methyl-pyridin-3-ylamino)-pyridin-3-yl]-[2-(1-ethyl-propyl)-[1,3]oxazinan-3-yl]-methanone] it was 99%; in that of `CCCCC1OCCCN1C(=O)c1cnc(Nc2ccc(C)nc2)c(Cl)c1` (centres unmarked) [Compound 4.70, (2-Butyl-[1,3]oxazinan-3-yl)-[5-chloro-6-(6-methyl-pyridin-3-ylamino)-pyridin-3-yl]-methanone], 96%. On the same count and under the same terms, in the case of `COCCC1CCCCN1C(=O)c1cnc(Nc2ccc(C)nc2)c(Cl)c1` (centres unmarked) [Compound 4.71, [5-Chloro-6-(6-methyl-pyridin-3-ylamino)-pyridin-3-yl]-[2-(2-methoxy-ethyl)-piperidin-1-yl]-methanone] it was 99%; in that of `Cc1ccc(Nc2ncc(C(=O)N3CCCC3c3ccccc3)cc2Cl)cn1` (centres unmarked) [Compound 4.72, [5-Chloro-6-(6-methyl-pyridin-3-ylamino)-pyridin-3-yl]-(2-phenyl-pyrrolidin-1-yl)-methanone], 97%. Still for that read-out and setting: with `Cc1ccc(Nc2ncc(C(=O)N3CCCC3c3ccccn3)cc2Cl)cn1` (centres unmarked) [Compound 4.73, [5-Chloro-6-(6-methyl-pyridin-3-ylamino)-pyridin-3-yl]-(2-pyridin-2-yl-pyrrolidin-1-yl)-methanone] the figure was 72%; with `CCO[C@@H]1CCCN1C(=O)c1cnc(Nc2ccc(C)nc2)c(Cl)c1` [Compound 4.74, [5-Chloro-6-(6-methyl-pyridin-3-ylamino)-pyridin-3-yl]-((R)-2-ethoxy-pyrrolidin-1-yl)-methanone], 92%. `Cc1ccc(Nc2ncc(C(=O)N3CCCC3c3ccc(C)s3)cc2Cl)cn1` (centres unmarked) [Compound 4.75, [5-Chloro-6-(6-methyl-pyridin-3-ylamino)-pyridin-3-yl]-[2-(5-methyl-thiophen-2-yl)-pyrrolidin-1-yl]-methanone]: the inhibition at 10 µM amounted to 96%.
